Test results published in patent publication US20260207623A1, “USE OF ESTETROL IN HEPATICALLY IMPAIRED PATIENTS” (ESTETRA SRL, priority 2022, published 2026).

Test system: post-menopausal women
Assay: Example 3: menopause-specific Quality of Life (MENQOL) questionnaire
Assay type: in vivo, human

How did the “MENQOL Anxious or Nervous, Estimate vs Placebo” value (15 mg) turn out when `C[C@]12CC[C@@H]3c4ccc(O)cc4CC[C@H]3[C@@H]1[C@@H](O)[C@@H](O)[C@@H]2O.O` [E4 monoh.] was run?
Its value is −0.6100.

What about the “MENQOL Being Impatient with Others, Estimate vs Placebo” value (15 mg) of the same molecule?
Its value is −0.4911.

What about the “MENQOL Difficulty sleeping, Estimate vs Placebo” value (15 mg) of the same molecule?
The value was −0.7011.

What about the “MENQOL Dissatisfied Personal Life, Estimate vs Placebo” value (15 mg) of the same molecule?
Its value is −0.8163.

And the “MENQOL Physical Domain, Aching in muscles, Estimate vs Placebo” value (15 mg)?
Its value is −0.1858.

What about the “MENQOL Psychosocial Domain Score, Estimate vs Placebo” value (15 mg) of the same molecule?
The value was −0.5211.

And the “Total MENQOL Score, Estimate vs Placebo” value (15 mg)?
The value was −0.7068.

And the “MENQOL Anxious or Nervous, Estimate vs Placebo” value (20 mg)?
Its value is −0.8197.

And the “MENQOL Being Impatient with Others, Estimate vs Placebo” value (20 mg)?
Its value is −0.5656.

And the “MENQOL Difficulty sleeping, Estimate vs Placebo” value (20 mg)?
The value was −0.7258.

What about the “MENQOL Dissatisfied Personal Life, Estimate vs Placebo” value (20 mg) of the same molecule?
Its value is −1.2719.

What about the “MENQOL Physical Domain, Aching in muscles, Estimate vs Placebo” value (20 mg) of the same molecule?
The value was −0.5576.

And the “MENQOL Psychosocial Domain Score, Estimate vs Placebo” value (20 mg)?
The value was −0.6056.

And the “Total MENQOL Score, Estimate vs Placebo” value (20 mg)?
The value was −0.7155.
